Values after ≈ are worked out from the molar mass of the structure shown.
Columns and labels:
Escherichia coli = assay: Effect on the intestinal bacterial colonies: Escherichia coli in feces; type: in vivo; conditions: mice; for Logarithmic value of the number of bacterial cells per one g of feces, E. coli: oral 500 mg/kg/day for two consecutive days, feces one day after administration
Protocol: (§1) Each of the cephalosporin derivatives of the invention prepared in Examples 1 to 10 was orally administered to mice (one group consisting of five female ICR mice of 6-week-old) for two consecutive days at a dose of 500 mg/kg/day.
(§2) Before and one day after the administration, feces of each mouse were collected and diluted with an anaerobic diluent (phosphoric buffer solution) of 100 times volume and the diluted feces were ground. 0.1 ml of the diluted and ground feces was smeared on each culture medium shown in Table 1 and cultured aerobically or anaerobically (according to the anaerobic glove box method) under each condition shown in Table 1 and the number of each bacterium shown in Table 1 was counted.
DHL agar aerobic, 37° C.,

Pseudomonas aeruginosa = assay: Effect on the intestinal bacterial colonies: Pseudomonas aeruginosa in feces; type: in vivo; conditions: mice, oral 500 mg/kg/day for two consecutive days, feces one day after administration
Protocol: as §1, §2
NAC agar aerobic, 37° C.,

Streptococcus spp. = assay: Effect on the intestinal bacterial colonies: Streptococcus spp. in feces; type: in vivo; conditions: mice, oral 500 mg/kg/day for two consecutive days, feces one day after administration
Protocol: as §1, §2
TATAC agar aerobic, 37° C.,

[1] = system: Lactobacillus acidophilus; assay: Effect on the intestinal bacterial colonies: Lactobacillus acidophilus in feces; type: in vivo; conditions: mice; for Logarithmic value of the number of bacterial cells per one g of feces, L. acidophilus: oral 500 mg/kg/day for two consecutive days, feces one day after administration
Protocol: as §1, §2
Lactobacillus acidophilus
LBS agar anaerobic, 37° C.,

Lactobacillus bifidus = assay: Effect on the intestinal bacterial colonies: Lactobacillus bifidus in feces; type: in vivo; conditions: mice, oral 500 mg/kg/day for two consecutive days, feces one day after administration
Protocol: as §1, §2
BS agar anaerobic, 37° C.,

Bacteroides = assay: Effect on the intestinal bacterial colonies: Bacteroides in feces; type: in vivo; conditions: mice, oral 500 mg/kg/day for two consecutive days, feces one day after administration
Protocol: as §1, §2
Bacteroides NBGT agar anaerobic, 37° C.,

[2] = system: Escherichia coli IFO 12734; assay: Antibacterial activity (MIC, agar plate) against E. coli; type: cell-based; conditions: Escherichia coli IFO 12734, Mueller-Hinton agar, 37° C., 18 to 24 hours; unit assumed
Protocol: (§3) Antibacterial activity of each of the cephalosporin derivatives of the invention prepared in Examples 1 to 10 was examined against the following two bacteria according to the standard method of Japan Society of Chemitherapy: Escherichia coli IFO 12734 and Staphylococcus aureus IAM 1011.
(§4) Each bacterial strain was inoculated into the Mueller-Hinton's culture medium and cultured at 37° C. for 18 to 48 hours. The cultured medium was diluted so as to contain 1×10^6 cells of the bacteria per one ml, and the obtained medium was used as the bacterial specimen.
(§5) Agar plates were prepared by adding one part by weight of each solution of the cephalosporin derivative of the invention at a predetermined concentration to nine parts by weight of Mueller-Hinton's culture medium.
(§6) A loopful amount of the bacterial specimen prepared above was smeared to make a streak of about 2 cm on each agar plate prepared above and cultured at 37° C. for 18 to 24 hours.
(§7) The minimum concentration for completely inhibiting proliferation of the bacteria (referred to as MIC) was determined.

[3] = system: Staphylococcus aureus IAM 1011; assay: Antibacterial activity (MIC, agar plate) against Staph. aureus; type: cell-based; conditions: Staphylococcus aureus IAM 1011, Mueller-Hinton agar, 37° C., 18 to 24 hours; unit assumed
Protocol: as §3, §4, §5, §6, §7

[4] = system: Staphylococcus aureus IAM 1011; assay: Activation by rat liver homogenate (S-9 mix), proliferation-inhibiting circle, penicillin cup method; type: cell-based; conditions: incubated with rat liver S-9 mix, 37° C. 20 min; circle diameter relative to the starting compound
Protocol: As an activating enzyme of metabolism, a rat liver homogenate (S-9, manufactured by Oriental Yeast Company, Japan) was used in the following composition per 1 ml (hereinafter referred to as S-9 mix). 0.1 ml of the solution of each of the cephalosporin derivatives of the invention prepared in Examples 1 to 10 at a concentration of 100 μg/ml was mixed with 0.9 ml of S-9 mix or 0.9 ml of 0.1 M phosphoric buffer solution (as a control) and the obtained mixture was incubated at 37° C. for 20 min. with shaking. Staphylococcus aureus IAM 1011 was inoculated into a Mueller-Hinton's culture medium and cultured at 37° C. for 18 hours. The culture medium was adjusted to a cell concentration of 1×10^8 per 1 ml and mixed with 50 times by volume of Mueller-Hinton's agar culture medium to obtain an agar plate. A penicillin cup of 8 mm in diameter was placed on the agar plate prepared above, and into the cup 0.1 ml of the mixture containing the cephalosporin derivative prepared above was introduced and allowed to stand at 4° C. for 2 hours, and then cultured at 37° C. for 18 hours to measure the diameter of a circle in which the proliferation of bacteria was inhibited (proliferation-inhibiting circle). In Table 4, the proliferation-inhibiting index is shown in the ratio (%) of the diameter of the proliferation-inhibiting circle obtained by using each of the cephalosporin derivatives of the invention to that obtained by using each of the starting compound in preparing each of the cephalosporin derivatives of the invention.

[5] = oral 500 mg/kg/day for two days, feces

CC(=O)OCC1=C(C(=O)O)N2C(=O)[C@@H](NC(=O)Cc3cccs3)[C@H]2SC1 [Cephalotin, cephalotin, reference compound]
Logarithmic value of the number of bacterial cells per one g of feces, E. coli (Escherichia coli): 9.9 | change in the number of Escherichia coli as compared to that before administration (Escherichia coli; [5]): increased | Logarithmic value of the number of bacterial cells per one g of feces, Ps. aeruginosa (Pseudomonas aeruginosa): < 3.0 | Logarithmic value of the number of bacterial cells per one g of feces, Strept. spp. (Streptococcus spp.): 9.0 | Logarithmic value of the number of bacterial cells per one g of feces, L. acidophilus [1]: 4.1 | change in the number of Lactobacillus acidophilus [1, 5]: decreased | Logarithmic value of the number of bacterial cells per one g of feces, L. bifidus (Lactobacillus bifidus): 9.2 | Logarithmic value of the number of bacterial cells per one g of feces, Bacteroides (Bacteroides): 7.2

CC(=O)OCC1=C(C(=O)Nc2ccc(O)cc2)N2C(=O)C(NC(=O)Cc3cccs3)C2SC1 (centres unmarked) [Example 1, N-(4-hydroxyphenyl)-7-(thienyl-2-acetamido)cephalosporanic acid amide]
Logarithmic value of the number of bacterial cells per one g of feces, E. coli (Escherichia coli): 6.5 | Logarithmic value of the number of bacterial cells per one g of feces, Ps. aeruginosa (Pseudomonas aeruginosa): < 3.0 | Logarithmic value of the number of bacterial cells per one g of feces, Strept. spp. (Streptococcus spp.): 6.3 | Logarithmic value of the number of bacterial cells per one g of feces, L. acidophilus [1]: 8.9 | Logarithmic value of the number of bacterial cells per one g of feces, L. bifidus (Lactobacillus bifidus): 8.2 | Logarithmic value of the number of bacterial cells per one g of feces, Bacteroides (Bacteroides): 8.7 | MIC E. coli [2]: ≥ 100 µg/mL | MIC Staph. aureus [3]: ≥ 12.5 µg/mL | Proliferation-inhibiting index (%) After adding S-9 mix [4]: +++ (66-100)

COC(=O)c1ccc(NC(=O)C2=C(COC(C)=O)CSC3C(NC(=O)Cc4cccs4)C(=O)N23)cc1 (centres unmarked) [Example 2, N-(4-carbomethoxyphenyl)-7-(thienyl-2-acetamido)cephalosporanic acid amide]
Logarithmic value of the number of bacterial cells per one g of feces, E. coli (Escherichia coli): 6.4 | Logarithmic value of the number of bacterial cells per one g of feces, Ps. aeruginosa (Pseudomonas aeruginosa): < 3.0 | Logarithmic value of the number of bacterial cells per one g of feces, Strept. spp. (Streptococcus spp.): 6.7 | Logarithmic value of the number of bacterial cells per one g of feces, L. acidophilus [1]: 9.1 | Logarithmic value of the number of bacterial cells per one g of feces, L. bifidus (Lactobacillus bifidus): 8.6 | Logarithmic value of the number of bacterial cells per one g of feces, Bacteroides (Bacteroides): 8.1 | MIC E. coli [2]: ≥ 25 µg/mL | MIC Staph. aureus [3]: 0.2 µg/mL (≈ 0.378 µM) | Proliferation-inhibiting index (%) After adding S-9 mix [4]: ++ (33-66)

CCOC(=O)c1ccc(NC(=O)C2=C(COC(C)=O)CSC3C(NC(=O)Cc4cccs4)C(=O)N23)cc1 (centres unmarked) [Example 3, N-(4-carboethoxyphenyl)-7-(thienyl-2-acetamido)cephalosporanic acid amide]
Logarithmic value of the number of bacterial cells per one g of feces, E. coli (Escherichia coli): 6.5 | Logarithmic value of the number of bacterial cells per one g of feces, Ps. aeruginosa (Pseudomonas aeruginosa): < 3.0 | Logarithmic value of the number of bacterial cells per one g of feces, Strept. spp. (Streptococcus spp.): 6.5 | Logarithmic value of the number of bacterial cells per one g of feces, L. acidophilus [1]: 9.0 | Logarithmic value of the number of bacterial cells per one g of feces, L. bifidus (Lactobacillus bifidus): 8.3 | Logarithmic value of the number of bacterial cells per one g of feces, Bacteroides (Bacteroides): 8.1 | MIC E. coli [2]: ≥ 100 µg/mL | MIC Staph. aureus [3]: ≥ 12.5 µg/mL | Proliferation-inhibiting index (%) After adding S-9 mix [4]: ++ (33-66)

CCCCOC(=O)c1ccc(NC(=O)C2=C(COC(C)=O)CSC3C(NC(=O)Cc4cccs4)C(=O)N23)cc1 (centres unmarked) [Example 4, N-(4-carbo-n-butoxyphenyl)-7-(thienyl-2-acetamido)cephalosporanic acid amide]
Logarithmic value of the number of bacterial cells per one g of feces, E. coli (Escherichia coli): 6.4 | Logarithmic value of the number of bacterial cells per one g of feces, Ps. aeruginosa (Pseudomonas aeruginosa): < 3.0 | Logarithmic value of the number of bacterial cells per one g of feces, Strept. spp. (Streptococcus spp.): 6.7 | Logarithmic value of the number of bacterial cells per one g of feces, L. acidophilus [1]: 9.1 | Logarithmic value of the number of bacterial cells per one g of feces, L. bifidus (Lactobacillus bifidus): 8.5 | Logarithmic value of the number of bacterial cells per one g of feces, Bacteroides (Bacteroides): 8.1 | MIC E. coli [2]: ≥ 100 µg/mL | MIC Staph. aureus [3]: ≥ 12.5 µg/mL | Proliferation-inhibiting index (%) After adding S-9 mix [4]: ++ (33-66)

CC(=O)OCC1=C(C(=O)Nc2ccc(CC(=O)O)cc2)N2C(=O)C(NC(=O)Cc3cccs3)C2SC1 (centres unmarked) [Example 5, N-(4-carboxymethylphenyl)-7-(thienyl-2-acetamido)cephalosporanic acid amide]
Logarithmic value of the number of bacterial cells per one g of feces, E. coli (Escherichia coli): 6.5 | Logarithmic value of the number of bacterial cells per one g of feces, Ps. aeruginosa (Pseudomonas aeruginosa): < 3.0 | Logarithmic value of the number of bacterial cells per one g of feces, Strept. spp. (Streptococcus spp.): 6.8 | Logarithmic value of the number of bacterial cells per one g of feces, L. acidophilus [1]: 9.1 | Logarithmic value of the number of bacterial cells per one g of feces, L. bifidus (Lactobacillus bifidus): 8.4 | Logarithmic value of the number of bacterial cells per one g of feces, Bacteroides (Bacteroides): 8.2 | MIC E. coli [2]: ≥ 100 µg/mL | MIC Staph. aureus [3]: 1.56 µg/mL (≈ 2.95 µM) | Proliferation-inhibiting index (%) After adding S-9 mix [4]: +++ (66-100)

COC(=O)Cc1ccc(NC(=O)C2=C(COC(C)=O)CSC3C(NC(=O)Cc4cccs4)C(=O)N23)cc1 (centres unmarked) [Example 6, N-(4-carbomethoxymethylphenyl)-7-(thienyl-2-acetamido)cephalosporanic acid amide]
Logarithmic value of the number of bacterial cells per one g of feces, E. coli (Escherichia coli): 6.8 | Logarithmic value of the number of bacterial cells per one g of feces, Ps. aeruginosa (Pseudomonas aeruginosa): < 3.0 | Logarithmic value of the number of bacterial cells per one g of feces, Strept. spp. (Streptococcus spp.): 6.5 | Logarithmic value of the number of bacterial cells per one g of feces, L. acidophilus [1]: 8.9 | Logarithmic value of the number of bacterial cells per one g of feces, L. bifidus (Lactobacillus bifidus): 8.3 | Logarithmic value of the number of bacterial cells per one g of feces, Bacteroides (Bacteroides): 8.8 | MIC E. coli [2]: ≥ 100 µg/mL | MIC Staph. aureus [3]: ≥ 12.5 µg/mL | Proliferation-inhibiting index (%) After adding S-9 mix [4]: +++ (66-100)

CCOC(=O)Cc1ccc(NC(=O)C2=C(COC(C)=O)CSC3C(NC(=O)Cc4cccs4)C(=O)N23)cc1 (centres unmarked) [Example 7, N-(4-carboethoxymethylphenyl)-7-(thienyl-2-acetamido)cephalosporanic acid amide]
Logarithmic value of the number of bacterial cells per one g of feces, E. coli (Escherichia coli): 6.4 | Logarithmic value of the number of bacterial cells per one g of feces, Ps. aeruginosa (Pseudomonas aeruginosa): < 3.0 | Logarithmic value of the number of bacterial cells per one g of feces, Strept. spp. (Streptococcus spp.): 6.6 | Logarithmic value of the number of bacterial cells per one g of feces, L. acidophilus [1]: 8.9 | Logarithmic value of the number of bacterial cells per one g of feces, L. bifidus (Lactobacillus bifidus): 8.3 | Logarithmic value of the number of bacterial cells per one g of feces, Bacteroides (Bacteroides): 8.8 | MIC E. coli [2]: ≥ 100 µg/mL | MIC Staph. aureus [3]: 6.25 µg/mL (≈ 11.2 µM) | Proliferation-inhibiting index (%) After adding S-9 mix [4]: +++ (66-100)

CC(=O)OCC1=C(C(=O)Nc2ccc(C(=O)NCC(=O)O)cc2)N2C(=O)C(NC(=O)Cc3cccs3)C2SC1 (centres unmarked) [Example 8, N-(4-carboxymethylcarbamoylphenyl)-7-(thienyl-2-acetamido)cephalosporanic acid amide]
Logarithmic value of the number of bacterial cells per one g of feces, E. coli (Escherichia coli): 6.4 | Logarithmic value of the number of bacterial cells per one g of feces, Ps. aeruginosa (Pseudomonas aeruginosa): < 3.0 | Logarithmic value of the number of bacterial cells per one g of feces, Strept. spp. (Streptococcus spp.): 6.8 | Logarithmic value of the number of bacterial cells per one g of feces, L. acidophilus [1]: 9.1 | Logarithmic value of the number of bacterial cells per one g of feces, L. bifidus (Lactobacillus bifidus): 8.5 | Logarithmic value of the number of bacterial cells per one g of feces, Bacteroides (Bacteroides): 8.1 | MIC E. coli [2]: ≥ 100 µg/mL | MIC Staph. aureus [3]: 12.5 µg/mL (≈ 21.8 µM) | Proliferation-inhibiting index (%) After adding S-9 mix [4]: ++ (33-66)

— US4439434A, “Cephalosporin derivative and pharmaceutical composition containing the derivative” (Kureha Kagaku Kogyo Kabushiki Kaisha, priority 1981, dated 1984)
